Experimental data published in publication PMC12389136, “Insights into the Structural Patterns in Human Glioblastoma Cell Line SF268 Activity and ADMET Prediction of Curcumin Derivatives” (Pharmaceutics, 2025).
Converted amounts (≈) assume the structure as drawn.

Assays:
SF268 glioblastoma cells = test: MTT cytotoxicity in the glioblastoma cell line SF268 (single-concentration screening and IC50); format: cell-based, Human; conditions: for IC50 / activity at 10 µg/mL: Homo sapiens; for IC50: SF-268; for activity at 10 µg/mL: SF-268, 48 h, read-out: Growth Screening (%RG); for activity at 10 µg/mL / Growth Screening (%RG): SF268, single concentration 10 µg/mL, 48 h, percentage of relative growth; for Selectivity Index (SI): Vero versus SF268
Procedure: Cultures were maintained at 37 °C in a 5% CO2 atmosphere and split by trypsin treatment once per week to maintain confluence.
RPMI without cells was used as a color control, and doxorubicin was used as an inhibition control. After treatment, MTT was added to each well, and the absorbance at 570 nm was determined 4 h later using a color plate reader. All bioassays were performed in duplicate, and the IC50 values were determined by the Data Analysis complement Wizard of Excel 2000 (Microsoft, Seattle, WA, USA).

Vero cells = test: Mammalian cytotoxicity, MTT assay in Vero cells; format: cell-based; conditions: 48 h; for IC50: Chlorocebus sabaeus
Procedure: Grade IV SF268 glioblastoma cells and Vero epithelial cells were obtained from ATCC and cultured in complete medium consisting of Roswell Park Memorial Institute medium (RPMI-1640) supplemented with 0.05% gentamicin (50 mg/mL) and 10% FBS (fetal bovine serum; Gibco, Invitrogen, Carlsbad, CA, USA). Cultures were maintained at 37 °C in a 5% CO2 atmosphere and split by trypsin treatment once per week to maintain confluence.
For the cytotoxicity assays, Vero cells were cultivated in 96-well plates at 37 °C under a 5% CO2 atmosphere using RPMI-1640 medium with 0.05% gentamicin (50 mg/mL) and 10% FBS (fetal bovine serum). Vero cells were allowed to adhere for 24 h before being incubated for 48 h with the samples. During the treatment, dimethyl sulfoxide (DMSO) was used as a negative control, curcumin (1) was used as a control, and samples were assayed at four different concentrations. After incubation, MTT (3-(4,5-di-methyl-thiazol-2-yl)-2,5-diphenyl-tetrazolium bromide) was added to each well, and the absorbance at 570 nm was determined 4 h later using a color plate reader. Cytotoxicity was evaluated colorimetrically by calculating the ability of the remaining living Vero cells to reduce the pale yellow MTT to the black–purple formazan product, as previously described. All bioassays were performed in duplicate, and the inhibitory concentration (IC50) values were determined using the Data Analysis complement Wizard of Excel 2000 (Microsoft, Seattle, WA, USA).

SF268 cell microtubules = test: Immunofluorescence staining of microtubules in SF268 cells; format: cell-based, Human; conditions: SF268, 10 µg/mL, 24 h / 12 h, versus DMSO control
Procedure: SF268 cells were seeded onto 96-well plates and allowed to adhere overnight in complete growth medium (RPMI-1640).
After treatment, the cells were rinsed two times with PBS, fixed in 4% paraformaldehyde (15 min), and permeabilized with 0.5% Triton X-100 (Sigma Aldrich, St. Louis, MO, USA) (5 min). Nonspecific binding was blocked with 5% bovine serum albumin (BSA) in phosphate-buffered saline (PBS) for 1 h. […] Nuclei were counterstained with Hoechst 33342 (15 min), washed 2 times with PBS, and left in PBS at 4 °C in the dark.
Fluorescence images were acquired with an Olympus IX70 microscope (Olympus, Tokyo, Japan) using a 60× objective with identical exposure settings for all conditions. Microtubule density and organization were acquired and analyzed using β-tubulin signals in HCImage Hamamatsu (version 4.8) and ImageJ (version 1.54).
SF268 cells were exposed to media containing either DMSO as a control or curcumin derivatives at 10 μg/mL for 24 h, after which the microtubules were visualized with an α tubulin antibody (yellow), and the cell nuclei were stained with Hoechst (blue).
The cells were then stained with a β-tubulin antibody (yellow) and Hoechst dye (blue) to visualize the nucleus.

[1] = system: mitochondrial membrane potential of SF268 cancer cells; test: Mitochondrial membrane potential measurement with DiOC6; format: cell-based, Human; conditions: 10 µg/mL, 6 h, versus DMSO control
Procedure: Changes in membrane potential were measured by staining cultured cells with the mitochondrial selective dye 3,3′-dihexyloxacarbocyanine (DiOC6) at 10 nM (Thermo Fisher, Waltham, MA, USA). The samples were incubated at 10 μg/mL for 6 h at 37 °C and then stained for 20 min with DiOC6 in the dark. Following incubation, the cells were washed, and the green fluorescence intensity of the DiOC6-stained cells was analyzed with a fluorometer immediately after staining. Incubation for 1 h with the mitochondrial membrane disruptor CCCP, carbonyl cyanide m-chlorophenylhydrazone (50 μM final concentration), was used as a positive control.
Changes in the mitochondrial membrane potential, a common hallmark of programmed cell death, were analyzed in samples with promising activities toward CNS cell line growth. We examined the effects of these compounds on the mitochondrial membrane potential using the dye DiOC6, a fluorophore that accumulates rapidly and selectively inside mitochondria depending on the membrane potential.
Figure 6 Changes in mitochondrial membrane potential caused by the compounds. Fluorometry was used to measure the mitochondrial effects of compounds that inhibited cell growth in culture. A membrane disruptor (CCCP) was added as a positive control, and untreated cultures (DMSO) were used as a negative control. […]

Porcine tubulin = molecular target: T1, Porcine tubulin (Sus scrofa, UniProt P02550+P02554); test: In vitro tubulin polymerization assay (cell-free kit); format: biochemical; conditions: 10 µg/mL, 1 h at 37 °C, versus DMSO control
T1 construct: purchased Cytoskeleton Inc., Denver, CO, USA BK011P; host or cells: porcine neural tissue (tissue-purified; that it is brain is my own knowledge of the kit)
Procedure: A Tubulin Polymerization Assay Kit (Porcine tubulin and Fluorescence-based; Cat. # BK011P) (Cytoskeleton Inc., Denver, CO, USA) was used. Neural tubulin (>99% pure cytoskeleton) and tubulin polymerization buffer were mixed with 10 µg/mL curcumin derivatives or the vehicle DMSO at 37 °C in a preheated 96-well plate. The measurement of […] was immediately initiated using a Bio-Tek Synergy HT plate reader (one reading per minute for 1 h, according to the kit instructions). The rate of tubulin polymerization (milli-OD340 units per min) was then calculated for each sample from the linear portion of the kinetics curve, and group mean rates were analyzed for statistical significance.
We used a fluorescence cell-free-based assay to analyze the ability of curcumin to inhibit tubulin polymerization into microtubules in vitro. […]
Figure 5 (A) Tubulin polymerization of compounds 1, 2, 3, 4, 6, and 11. Tubulin polymerization was monitored by the increase in fluorescence at 360 nm (excitation) and 420 nm (emission) for 1 h at 37 °C. […]
The tubulin polymerization activities were determined by measuring fluorescence and recording the area under the curve (AUC). Increasing fluorescence indicates increasing polymerization activity, whereas decreasing fluorescence indicates greater depolymerization activity.

T1 sequence (P02550 whole entry): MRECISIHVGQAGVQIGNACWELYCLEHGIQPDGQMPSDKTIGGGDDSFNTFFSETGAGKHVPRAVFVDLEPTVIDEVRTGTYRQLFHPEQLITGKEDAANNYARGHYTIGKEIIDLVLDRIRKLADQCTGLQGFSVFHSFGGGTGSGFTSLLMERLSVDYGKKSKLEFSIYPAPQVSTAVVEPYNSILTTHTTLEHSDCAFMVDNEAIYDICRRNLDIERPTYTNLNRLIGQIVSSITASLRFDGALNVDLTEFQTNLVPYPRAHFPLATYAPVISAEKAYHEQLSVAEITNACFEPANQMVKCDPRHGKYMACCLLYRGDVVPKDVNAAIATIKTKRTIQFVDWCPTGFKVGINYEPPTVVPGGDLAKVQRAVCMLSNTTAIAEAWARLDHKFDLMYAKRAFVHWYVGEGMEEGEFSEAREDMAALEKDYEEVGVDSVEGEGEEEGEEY
T1 sequence (P02554 whole entry): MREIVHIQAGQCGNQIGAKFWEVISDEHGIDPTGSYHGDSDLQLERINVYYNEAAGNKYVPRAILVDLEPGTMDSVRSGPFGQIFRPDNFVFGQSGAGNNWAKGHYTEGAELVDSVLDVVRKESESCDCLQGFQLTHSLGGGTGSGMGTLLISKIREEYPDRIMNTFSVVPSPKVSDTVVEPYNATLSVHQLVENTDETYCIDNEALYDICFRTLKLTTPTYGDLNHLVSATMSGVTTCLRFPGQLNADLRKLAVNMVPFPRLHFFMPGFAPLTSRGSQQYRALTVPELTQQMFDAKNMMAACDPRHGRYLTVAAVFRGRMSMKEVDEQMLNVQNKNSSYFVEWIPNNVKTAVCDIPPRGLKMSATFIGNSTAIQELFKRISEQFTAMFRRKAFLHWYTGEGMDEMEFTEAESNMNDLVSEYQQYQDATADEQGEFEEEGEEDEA

Compound	IC50 (SF268 glioblastoma cells; SF268, 48 h, MTT)	IC50 (Vero cells)	activity at 10 µg/mL (SF268 glioblastoma cells; MTT)	also measured
1,7-bis(4-hydroxy-3-methoxyphenyl)hepta-1,6-diene-3,5-dione [Compound 1, reference compound]	–	–	–	IC50 SF268 (SF268 glioblastoma cells; SF268, 48 h, MTT): 6.3 µg/mL; IC50 VERO (Vero cells): 15.9 µg/mL
COc1cc(/C=C/C(O)=C/C(=O)/C=C/c2ccc(OCc3ccccc3)c(OC)c2)ccc1O [Compound 2]	3.97 µg/mL (≈ 8.65 µM)	11.9 µg/mL (≈ 26 µM)	–	microtubule density and organization (SF268 cell microtubules): significant reduction in microtubule density
COc1cc(/C=C/C(O)=C/C(=O)/C=C/c2ccc(OC(C)=O)c(OC)c2)ccc1O [Compound 3]	0.88 µg/mL (≈ 2.14 µM)	13.2 µg/mL (≈ 32.2 µM)	≤ 40%	mitochondrial membrane potential (DiOC6 fluorescence intensity) [1]: lowest fluorescence intensity
COc1cc(/C=C/C(=O)/C=C(O)/C=C/c2ccc(OC(C)=O)c(OC)c2)ccc1OC(C)=O [Compound 4, (1E,3Z,6E)-3-hydroxy-5-oxohepta-1,3,6-triene-1,7-diyl)bis(2-methoxy-4,1-phenylene) diacetate]	2.45 µg/mL	42.1 µg/mL	≤ 40%	Selectivity Index (SI) (SF268 glioblastoma cells): 17.16
COC(=O)CCC(=O)Oc1ccc(/C=C/C(=O)/C=C(O)/C=C/c2ccc(O)c(OC)c2)cc1OC [Compound 6]	0.833 µg/mL (≈ 1.73 µM)	12.9 µg/mL (≈ 26.7 µM)	≤ 40%	Selectivity Index (SI) (SF268 glioblastoma cells): 15.45; microtubule density and organization (SF268 cell microtubules): significant reduction in microtubule density
COc1cc(/C=C/C(O)=C/C(=O)/C=C/c2ccc(OC(=O)CCC(=O)O[C@@H]3C[C@H](C)CC[C@H]3C(C)C)c(OC)c2)ccc1O [Compound 7]	–	–	50.9%	–
COc1cc(C=CC(=O)C=C(O)C=Cc2ccc(OC(=O)CCC(=O)OC3CC(C)CCC3C(C)C)c(OC)c2)ccc1OC(=O)CCC(=O)OC1CC(C)CCC1C(C)C (stereo not shown) [Compound 8]	–	–	55.2%	–
COc1cc(/C=C/C(O)=C/C(=O)/C=C/c2ccc(OC(=O)CCC(=O)OC3C4CC5CC(C4)CC3C5)c(OC)c2)ccc1O (stereo not shown) [Compound 9]	–	–	45.6%	–
COc1cc(/C=C/C(=O)/C=C(O)/C=C/c2ccc(OC(=O)CCC(=O)OC3C4CC5CC(C4)CC3C5)c(OC)c2)ccc1OC(=O)CCC(=O)OC1C2CC3CC(C2)CC1C3 (stereo not shown) [Compound 10]	–	–	52%	–
C=CCOC(=O)CCC(=O)Oc1ccc(/C=C/C(=O)/C=C(O)/C=C/c2ccc(O)c(OC)c2)cc1OC [Compound 11, Allyl (4-(1E,3Z,6E)-3-hydroxy-7-(4-hydroxy-3-methoxyphenyl)-5-oxohepta-1,3,6-trien-1-yl)-2-methoxyphenyl) succinate]	0.59 µg/mL	11.9 µg/mL	≤ 40%	Selectivity Index (SI) (SF268 glioblastoma cells): 20.17; microtubule density and organization (SF268 cell microtubules): significant reduction in microtubule density; mitochondrial membrane potential (DiOC6 fluorescence intensity) [1]: lowest fluorescence intensity
C=CCOC(=O)CCC(=O)Oc1ccc(/C=C/C(=O)/C=C(O)/C=C/c2ccc(OC(=O)CCC(=O)OCC=C)c(OC)c2)cc1OC [Compound 12, Diallyl O,O′-(((1E,3Z,6E)-3-hydroxy-5-oxohepta-1,3,6-triene-1,7-diyl)bis(2-methoxy-4,1-phenylene)) disuccinate]	–	–	49.2%	–
COc1cc(/C=C/C(=O)/C=C(O)/C=C/c2ccc(OC(=O)CCC(=O)OCc3ccccc3)c(OC)c2)ccc1OC(=O)CCC(=O)OCc1ccccc1 [Compound 14, Dibenzyl O,O′-(((1E,3Z,6E)-3-hydroxy-5-oxohepta-1,3,6-triene-1,7-diyl)bis(2-methoxy-4,1-phenylene)) disuccinate]	–	–	85.1%	–
COc1cc(/C=C/C(O)=C/C(=O)/C=C/c2ccc(OC(=O)CCC(=O)OC(c3ccccc3)C3CCCCC3)c(OC)c2)ccc1O (stereo not shown) [Compound 15]	–	–	47.9%	–
COc1cc(/C=C/C(=O)/C=C(O)/C=C/c2ccc(OC(=O)CCC(=O)OC(c3ccccc3)C3CCCCC3)c(OC)c2)ccc1OC(=O)CCC(=O)OC(c1ccccc1)C1CCCCC1 (stereo not shown) [Compound 16]	–	–	57.2%	–
COc1cc(/C=C/C(O)=C/C(=O)/C=C/c2ccc(OC(=O)CCC(=O)OC3CCCc4ccccc43)c(OC)c2)ccc1O (stereo not shown) [Compound 17]	–	–	46.8%	–
COc1cc(/C=C/C(=O)/C=C(O)/C=C/c2ccc(OC(=O)CCC(=O)OC3Cc4ccccc4C3)c(OC)c2)ccc1OC(=O)CCC(=O)OC1Cc2ccccc2C1 [Compound 18]	–	–	62.9%	–
COc1cc(/C=C/C(O)=C/C(=O)/C=C/c2ccc(OC(=O)CCC(=O)OC3c4ccccc4-c4ccccc43)c(OC)c2)ccc1O [Compound 19]	1.11 µg/mL (≈ 1.75 µM)	15.2 µg/mL (≈ 24 µM)	≤ 40%	Selectivity Index (SI) (SF268 glioblastoma cells): 13.71
COc1cc(/C=C/C(=O)/C=C(O)/C=C/c2ccc(OC(=O)CCC(=O)OC3c4ccccc4-c4ccccc43)c(OC)c2)ccc1OC(=O)CCC(=O)OC1c2ccccc2-c2ccccc21 [Compound 20]	–	–	63%	–
COc1cc(/C=C/C(O)=C/C(=O)/C=C/c2ccc(OC(=O)CCC(=O)OC(c3ccccc3)c3ccccc3)c(OC)c2)ccc1O [Compound 21]	36.4 µg/mL (≈ 57.4 µM)	46 µg/mL (≈ 72.5 µM)	≤ 40%	Selectivity Index (SI) (SF268 glioblastoma cells): 1.26
COc1cc(/C=C/C(O)=C/C(=O)/C=C/c2ccc(OC(=O)CCC(=O)OCc3ccc4c(c3)C(=O)c3ccccc3C4=O)c(OC)c2)ccc1O [Compound 22]	58.9 µg/mL (≈ 85.5 µM)	72.8 µg/mL (≈ 106 µM)	≤ 40%	Selectivity Index (SI) (SF268 glioblastoma cells): 1.19
CC(=O)O[C@H]1C(=O)[C@@]2(C)[C@H]([C@H](OC(=O)c3ccccc3)[C@]3(O)C[C@H](OC(=O)[C@H](O)[C@@H](NC(=O)c4ccccc4)c4ccccc4)C(C)=C1C3(C)C)[C@]1(OC(C)=O)CO[C@@H]1C[C@@H]2O [Paclitaxel]	–	–	–	tubulin polymerization (fluorescence, AUC) (Porcine tubulin): caused an increase in the AUC
[Ca+2].[Cl-].[Cl-] [calcium chloride]	–	–	–	tubulin polymerization (fluorescence, AUC) (Porcine tubulin): significant decrease in the AUC
Benzyl (4-((1E,3Z,6E)-3-hydroxy-7-(4-hydroxy-3-methoxyphenyl)-5-oxohepta-1,3,6-trien-1-yl)-2-methoxyphenyl) succinate [Compound 13]	–	–	–	Growth Screening (%RG) (SF268 glioblastoma cells; MTT): 49.88%
Cyclopentyl (4-((1E,3Z,6E)-3-hydroxy-7-(4-hydroxy-3-methoxyphenyl)-5-oxohepta-1,3,6-trien-1-yl)-2-methoxyphenyl) succinate [Compound 5]	–	–	–	Growth Screening (%RG) (SF268 glioblastoma cells; MTT): 50.81%; IC50 VERO (Vero cells): 12.6 µg/mL
